Entries after “also recorded” stand apart in the source; their conditions may differ.
How the values were obtained:
NMDA toxicity in mice = assay: Prevention of NMDA neurotoxicity in mice (neurological scores); type: in vivo, mice (Balb/C); conditions: for maximum improvement of neurological scores: NMDA 60 mg/kg s.c., i.p. or i.v. pretreatment; for neurological scores/symptoms after NMDA toxicity: pretreated mice
Source text: Blockade of NMDA toxicity in mice: Subcutaneous injection of NMDA in mice results in a dose-dependent increase in the number, severity and duration of several neurological symptoms, culminating in death at the higher dose range. The symptoms include tail flicks, circling, tremor and convulsions. The ability of various compounds, when administered to mice prior to NMDA, to reduce the number and severity of these symptoms is a considered a measure of their potency in preventing NMDA behavioral toxicity in vivo.
Test drugs were administered intraperitoneally at the stipulated doses in a solution of MCT oil. Each point represents the mean scores of eight mice treated with the drug compared to the same number of control animals receiving the vehicle alone.
Test compounds were administered at a standard dose of 10 mg/kg either intraperitoneally (in MCT oil) or intravenously (in a submicronized emulsion).
Bicyclic compounds of the present invention were tested for their ability to block NMDA toxicity in mice. Balb/C mice received NMDA by subcutaneous injection at a dose of 60 mg/kg which was determined to be the LD20 dose of this substance. Thirty minutes prior to injection of the neurotoxin the animals received either (a) an intravenous injection of the test drug formulated in submicronized emulsion as described in Example 11); (b) an intraperitoneal injection of the test drug dissolved in MCT oil; (c) or the appropriate vehicle alone (control groups). The improvement rate afforded by the test drug was defined as the difference between scores of animals receiving the formulated drug and those receiving the vehicle alone. The doses tested for HU-254, HU-259 and HU-260 ranged from 5 to 30 mg/kg.
At least 6-8 mice were included per test group. The materials were tested in a masked study to preclude bias of the observer of clinical symptoms.
The behavioral scoring method (tabulated above) was used as the basic quantitative procedure for evaluating the level of NMDA or kainic acid neurotoxicity in mice. The neurological clinical status of each animal was calculated by totalling the scores of all signs that were evident throughout the study. Duration of symptoms was also taken into account.
If duration of a neurological system is up to 30 seconds, the score is s-1. Duration between 0.5-3.0 mins, the score is s. Duration longer than 3 mins, the score is s+1.

[1] = tested on: pyramidal cells in CA1 subfield of the hippocampus; assay: Histopathological evaluation of hippocampus in gerbils after bilateral common carotid artery occlusion; type: in vivo, Mongolian gerbils; conditions: drug 30 min after occlusion
Source text: Inhibition of ischemic neuronal damage in gerbils: Temporary blockage of the blood supply to the gerbil brain by surgical ligation of the two major arteries (common carotids) results in transient global forebrain ischemia. Temporary global ischemia produces a delayed, selective degeneration of neurons in the hippocampus, a brain structure essential for memory formation. The ability of various compounds to prevent hippocampal cell loss and the attendant memory deficits is considered a measure of their potency as neuroprotectants in ischemic conditions.
Mongolian gerbils (male), 65-70 gr (Tumblebrook Farm) underwent the ischemic procedure while anaesthetised with equithisine.
Common carotid arteries (CCA) were isolated and 3-0 silk suture material was positioned loosely round them. The tips of each loop were tied together, and the suture material was buried beside the trachea. The ventral neck incision was then sutured. In the following day, they were lightly anaesthetised with ether, the neck skin wounds were opened and both CCA were occluded for 10 minutes using small artery clips. During the ischemia and until the animals recovered (regaining righting reflexes), they were maintained in a warm state (36.5°-37.5° C. rectal temperature). […]
Histopathological evaluation. […] Then, 5 μm sections were cut from the area of the dorsal hippocampus, stained with H&E and cresyl violet, and evaluated according to the following system. The number of viable pyramidal cells in the medial, middle and lateral CA1 subfield of the hippocampus were counted under 400X magnification, along 0.4 mm in both sides. […]
Statistics. Neuroclinical appearance was analyzed using Wilcoxon Rank Sum Test. The histopathological evaluation was analyzed using One-Way ANOVA followed by Duncan's Test.
Gerbils were scored for their clinical symptoms following the ischemic insult according to the system described by Rudolphi et al. (Table 4). Each animal was evaluated daily over 4 consecutive days (Day 1 being the day of CCA occlusion). […]

[2] = tested on: acetylcholine-muscarinic receptor; type: binding, rat; conditions: 100 μM analogue
[3] = tested on: MK-801 sites located at the NMDA receptor ion channel; assay: Inhibition of [3H]MK-801 binding to rat forebrain membranes; conditions: for % inhibition of tritiated ligand binding to membranes, 3[H]-MK-801: 100 μM analogue
Source text: Binding to the NMDA receptor linked channel: Non competitive antagonists of NMDA, the primary example of which is the compound MK-801, bind to a site within the NMDA receptor channel thus preventing the activation of the receptor-channel complex and the consequent neurotoxicity. The ability of various compounds to compete with the binding of tritium labeled MK-801 to brain membranes is considered a measure of their potency as NMDA non-competitive antagonists.
The association of pinene derivatives with acetylcholine-muscarinic receptor and with MK-801 sites located at the NMDA receptor ion channel.
Inhibition of ^3 [H]MK-801 binding to rat forebrain membranes by the test HU-211 compounds was carried out as described for HU-211 in Eshhar et al., NeuroReport 5, No. 3, 1993) (Methods section). The test compounds were solubilized in a mixture of ethanol:Emulfor:water (20:3:57).

hypobaric anoxia in mice = assay: Survival of mice exposed to hypobaric anoxia; type: in vivo; conditions: 200 mmHg, 5 mg/kg i.p. in MCT oil, 45 min before
Description: Protection against hypobaric anoxia in mice: Exposure of mice to a hypobaric (200 mmHg) atmosphere reduces the amount of oxygen available to the animals and results in death within 1-2 minutes in untreated mice. Pretreatment with compounds that can counteract the effects of oxygen deprivation prolong (double or more) the survival time of mice subjected to this treatment. The increase in survival time is a measure of the potency of the compounds in counteracting anoxic damage in vivo.
Hypobaric Anoxia was used as a system for testing the neuroprotective effects of test compounds, HU-270 and HU-271. The experimental paradigm was derived from that described by Gotti and Depoortere, Congres de Circ. Cerebrale, Toulouse, 105-107 (1979). Briefly, mice in groups of 5 were placed in a chamber which was equilibrated at an atmospheric pressure of 200 mmHg (by evacuation via a vacuum pump). The mice were observed until they stopped breathing and the time was recorded for each mouse. The test compounds were administered 45 min before introducing the animals into the chamber. In all cases the experiment was performed in a masked vehicle controlled study to avoid bias on the part of the observer. Each mouse received the drug dissolved in MCT oil intraperitoneally at a dose of 5 mg/kg, or the vehicle alone (MCT oil, 5 ml/kg).

SMILES	maximum improvement of neurological scores (NMDA toxicity in mice)	neurological scores/symptoms after NMDA toxicity (NMDA toxicity in mice)	histopathological damage / survival of hippocampal cells [1]	% inhibition of tritiated ligand binding to membranes, 3[H]QNB [2]	% inhibition of tritiated ligand binding to membranes, 3[H]-MK-801 [3]	Ki ([3]; [3H]MK801 binding, rat forebrain membranes, representative experiment in triplicate (HU259), read-out: inhibition constant (K1))	survival of mice exposed to hypobaric anoxia (hypobaric anoxia in mice)
CCCCCCC(C)(C)c1cc(OC(C)=O)c([C@H]2C=C(C(=O)O)[C@H]3C[C@@H]2C3(C)C)c(OC(C)=O)c1 [(+)-4-[4-DMH-2,6 diacetoxyphenyl]-2-carboxy-6,6-dimethylbicyclo[3.1.1]hept-2-en]	30-40%	improvement in neurological scores	significantly decreased compared to control groups	98.0%	90.0%	7.6 µM	
CCCCCCC(C)(C)c1cc(OC(C)=O)c([C@H]2C=C(C(=O)N(CC)CC)[C@H]3C[C@@H]2C3(C)C)c(OC(C)=O)c1 [HU-270]	30-40%	decreased neurological symptoms	increased survival of hippocampal cells				increased survival; also recorded: statistically significant increase of survival time
CCCCCCC(C)(C)c1cc(OC(C)=O)c([C@H]2C=C(C(=O)NCCO)[C@H]3C[C@@H]2C3(C)C)c(OC(C)=O)c1 [HU-271]	30-40%	decreased neurological symptoms	increased survival of hippocampal cells	98.3%	46.3%		increased survival; also recorded: statistically significant increase of survival time

From patent publication US5434295A (priority 1994, dated 1995)
